Calls of active or inactive are those of the source.
Key:
[1] = biological target: T1, Nuclear receptor subfamily 0 group B member 1 (Homo sapiens, UniProt P51843); test: Luminescence-based cell-based high throughput dose response assay for inhibitors of the orphan nuclear receptor subfamily 0, group B, member 1 (DAX1; NR0B1). [Related pubchem assays (depositor defined):AID504766, AID504790]; assay type: functional
T1 sequence (P51843 whole entry): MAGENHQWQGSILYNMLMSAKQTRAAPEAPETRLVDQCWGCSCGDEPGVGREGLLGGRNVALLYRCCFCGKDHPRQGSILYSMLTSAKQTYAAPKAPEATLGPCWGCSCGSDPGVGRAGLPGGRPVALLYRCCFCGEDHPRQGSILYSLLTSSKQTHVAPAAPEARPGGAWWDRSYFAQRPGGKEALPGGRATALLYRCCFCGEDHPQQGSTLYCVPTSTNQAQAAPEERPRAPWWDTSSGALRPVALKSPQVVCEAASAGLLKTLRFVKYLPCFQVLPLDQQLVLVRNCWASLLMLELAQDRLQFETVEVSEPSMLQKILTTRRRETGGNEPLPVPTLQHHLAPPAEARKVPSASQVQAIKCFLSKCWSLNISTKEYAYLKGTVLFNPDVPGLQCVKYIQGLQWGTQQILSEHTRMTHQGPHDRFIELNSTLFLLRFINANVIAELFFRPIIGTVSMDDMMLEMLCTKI

HEK293 [2] = test: cells; assay type: functional, cell-based; details: Homo sapiens
Beta-galactosidase = Beta-galactosidase (Escherichia coli, UniProt Q8VNN2); test: PubChem AID 485352; assay type: functional
[3] = biological target: T2, Corticotropin-releasing factor receptor 2/Corticotropin-releasing factor-binding protein (Homo sapiens, UniProt P24387+Q13324); test: Dose Response confirmation of uHTS hits for small molecule antagonists of the CRF-binding protein and CRF-R2 receptor complex.; assay type: functional; details: read-out: IC50_Mean
T2 sequence (Q13324 whole entry): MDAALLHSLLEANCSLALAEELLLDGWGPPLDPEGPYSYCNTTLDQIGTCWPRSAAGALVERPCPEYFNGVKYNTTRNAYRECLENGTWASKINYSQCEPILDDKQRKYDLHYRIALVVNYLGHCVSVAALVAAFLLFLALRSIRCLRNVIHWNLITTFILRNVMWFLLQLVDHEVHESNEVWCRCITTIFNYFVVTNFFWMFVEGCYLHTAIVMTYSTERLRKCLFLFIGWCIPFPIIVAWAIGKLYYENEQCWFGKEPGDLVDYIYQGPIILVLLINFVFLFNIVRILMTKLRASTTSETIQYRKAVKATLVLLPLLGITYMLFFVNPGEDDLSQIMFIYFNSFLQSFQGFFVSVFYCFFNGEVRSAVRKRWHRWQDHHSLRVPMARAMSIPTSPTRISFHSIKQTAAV
T2 sequence (P24387 whole entry): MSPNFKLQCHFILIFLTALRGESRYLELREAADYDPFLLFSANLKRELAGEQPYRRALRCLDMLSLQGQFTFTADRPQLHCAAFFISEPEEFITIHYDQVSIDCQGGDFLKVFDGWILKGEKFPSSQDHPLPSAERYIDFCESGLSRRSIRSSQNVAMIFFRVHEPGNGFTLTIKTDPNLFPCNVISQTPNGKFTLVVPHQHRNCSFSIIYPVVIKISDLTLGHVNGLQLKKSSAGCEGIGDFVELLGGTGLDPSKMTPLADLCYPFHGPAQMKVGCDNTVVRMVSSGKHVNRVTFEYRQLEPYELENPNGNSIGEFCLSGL

[4] = biological target: Type-1 angiotensin II receptor (Homo sapiens, UniProt P30556); test: AT1 receptor antagonists, dose response, selectivity assay for APJ receptor antagonist project, cell-based, uHTS hits (AID 463214); assay type: functional;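 also: antagonist potency against angiotensin II stimulated AT1 response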
[5] = biological target: T2, Corticotropin-releasing factor receptor 2/Corticotropin-releasing factor-binding protein; test: activators of CRF receptor 2 with binding protein – uHTS hits, confirmation (AID 602473); assay type: functional; details: read-out: EC50_Mean
Jurkat [6] = test: antigen receptor-induced NF-kB inhibitors, dose response, Jurkat, luciferase reporter, luminescence, B- and T-cell (AID 489004); assay type: functional, cell-based; details: Homo sapiens;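 also: NF-kB luciferase reporter Jurkat cells stimulated with PMA plus ionomycin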
[7] = cytotoxicity in HEK-293T NF-kB-Luc cells, dose response, cytotoxicity control for B/T-cell NF-kB inhibitor project, cell-based, uHTS hits (AID 489019); assay type: functional;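 also: IC50 reflects cytotoxicity as loss of cell viability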
[8] = Luminescence Cell-Based Dose Retest to Confirm Inhibitors of Cancer Stem Cells. [Related pubchem assays (depositor defined):AID2717, AID2721]; assay type: functional; details: Homo sapiens
[9] = cytotoxicity in HMLE control line with eGFP shRNA, dose response, counter-screen for HMLE_sh_ECad selective toxicity project, cell-based, HMLE_sh_eGFP, luminescence (AID 463074); assay type: functional, Homo sapiens;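 also: HMLE human mammary epithelial cells expressing control shRNA against eGFP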
Leucine aminopeptidase = biological target: T3, Leucine aminopeptidase (Plasmodium falciparum 3D7, UniProt Q8IL11); test: P. falciparum M17LAP inhibitors, primary screen, biochemical, fluorogenic H-Leu-NHMec substrate, 1536-well (AID 1619); assay type: functional
T3 sequence (Q8IL11 whole entry): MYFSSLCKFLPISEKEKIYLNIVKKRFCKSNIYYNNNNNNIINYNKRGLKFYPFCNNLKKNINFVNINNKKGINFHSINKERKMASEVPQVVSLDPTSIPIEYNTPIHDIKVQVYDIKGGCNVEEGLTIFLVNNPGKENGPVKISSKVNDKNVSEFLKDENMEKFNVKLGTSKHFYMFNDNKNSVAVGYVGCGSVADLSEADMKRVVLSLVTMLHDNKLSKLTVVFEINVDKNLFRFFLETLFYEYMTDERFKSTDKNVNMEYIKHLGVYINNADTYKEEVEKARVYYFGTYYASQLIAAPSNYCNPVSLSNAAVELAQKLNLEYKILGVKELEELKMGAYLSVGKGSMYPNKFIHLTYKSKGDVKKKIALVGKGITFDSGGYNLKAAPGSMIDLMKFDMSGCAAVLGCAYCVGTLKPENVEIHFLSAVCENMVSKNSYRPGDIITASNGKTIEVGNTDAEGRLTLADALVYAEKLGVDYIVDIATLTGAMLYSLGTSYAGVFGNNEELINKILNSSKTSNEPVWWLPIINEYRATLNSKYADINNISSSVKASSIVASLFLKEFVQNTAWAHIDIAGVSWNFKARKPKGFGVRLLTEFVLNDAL

[10] = MC4R antagonists, dose response, counter-screen for LGR2 antagonist project, cell-based, plate reader, cherry pick (AID 743444); assay type: functional;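 also: transfected HEK 293 cells stimulated with alpha-MSH peptide; potency of inhibitors of the alpha-MSH evoked signal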
Procathepsin L = Procathepsin L (Homo sapiens, UniProt P07711); test: cathepsin L inhibitors, dose response, counter-screen for M1/M17 aminopeptidase inhibitor project, biochemical, QFRET, 1536-well (AID 2214)
[11] = inhibitors of clade B AD8 Env fusion, dose response, cell-based, cherry-pick (AID 652062); assay type: functional;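 also: luciferase signal from cell-cell fusion driven by HIV-1 clade B AD8 Env; potency is for inhibitors of fusion seen as a drop in luminescence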
[12] = off-target signal loss in HeLa-CEM21 co-culture – HeLa F-luc CTL cells, cherry-picked, counter-screen for HIV-1 Env fusion inhibitor project, dose response (AID 652040); assay type: functional, cell-based;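 also: potency for signal decrease marking cytotoxic or nonspecific inhibition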
Aspartyl aminopeptidase = biological target: T4, Aspartyl aminopeptidase (Plasmodium falciparum 3D7, UniProt Q8I2J3); test: Counterscreen for inhibitors of M1 and M17 aminopeptidases: QFRET-based biochemical high throughput dose response assay for inhibitors of the Plasmodium falciparum M18 Aspartyl Aminopeptidase (PFM18AAP). [Related PubChem assays: 1619 (Screening assay (M17LAP inhibitors).), 1445 (Screening assay (M1AAP inhibitors).)]
T4 sequence (Q8I2J3 whole entry): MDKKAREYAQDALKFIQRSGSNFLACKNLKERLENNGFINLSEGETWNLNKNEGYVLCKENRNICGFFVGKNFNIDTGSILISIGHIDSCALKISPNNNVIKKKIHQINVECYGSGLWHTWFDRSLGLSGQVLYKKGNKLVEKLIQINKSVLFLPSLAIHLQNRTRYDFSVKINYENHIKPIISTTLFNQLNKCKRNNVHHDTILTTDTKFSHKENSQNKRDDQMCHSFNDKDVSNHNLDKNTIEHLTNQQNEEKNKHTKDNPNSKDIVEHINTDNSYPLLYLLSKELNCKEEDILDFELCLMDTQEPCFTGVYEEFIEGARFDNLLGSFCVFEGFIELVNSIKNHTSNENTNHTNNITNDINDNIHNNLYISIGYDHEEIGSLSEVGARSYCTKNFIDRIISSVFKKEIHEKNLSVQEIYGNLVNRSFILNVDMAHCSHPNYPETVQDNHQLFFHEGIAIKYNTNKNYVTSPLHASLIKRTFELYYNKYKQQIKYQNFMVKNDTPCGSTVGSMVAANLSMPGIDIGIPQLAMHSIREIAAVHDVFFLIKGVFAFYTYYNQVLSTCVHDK

[13] = A549 cell cytotoxicity, dose response, cytotoxicity control, plate reader, cherry-pick, antagonist series (AID 743412); assay type: functional, cell-based
[14] = biological target: T5, Microphthalmia-associated transcription factor (Homo sapiens, UniProt O75030); test: TRPM1 promoter luciferase signal decrease, dose response, MITF inhibitor project, cell-based, SK-MEL-5, cherry-picked, set 3 (AID 493073); assay type: functional
T5 sequence (O75030 whole entry): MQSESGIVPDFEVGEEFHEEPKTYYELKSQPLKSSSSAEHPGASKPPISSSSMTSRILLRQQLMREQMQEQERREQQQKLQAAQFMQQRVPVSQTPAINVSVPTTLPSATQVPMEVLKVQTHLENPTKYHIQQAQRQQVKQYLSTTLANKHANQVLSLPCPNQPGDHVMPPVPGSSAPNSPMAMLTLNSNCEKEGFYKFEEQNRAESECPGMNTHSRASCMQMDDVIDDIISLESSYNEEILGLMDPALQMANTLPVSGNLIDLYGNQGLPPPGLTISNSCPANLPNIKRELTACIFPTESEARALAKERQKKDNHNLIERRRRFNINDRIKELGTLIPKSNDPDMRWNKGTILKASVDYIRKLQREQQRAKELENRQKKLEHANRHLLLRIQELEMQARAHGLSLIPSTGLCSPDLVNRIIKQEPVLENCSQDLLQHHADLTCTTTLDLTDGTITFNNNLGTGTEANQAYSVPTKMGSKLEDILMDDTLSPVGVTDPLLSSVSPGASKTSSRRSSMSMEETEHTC

[15] = LGR2 antagonists, dose response, cell-based, HEK293, CRE-luciferase reporter, cherry pick, set 2 (AID 743343); assay type: functional;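 also: transfected cells were stimulated with diluted bursicon conditioned medium after compound addition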
[16] = inhibitors of HIV Env-driven cell fusion, dose response, cherry-pick (AID 652057); assay type: functional, cell-based
HEK293 [17] = test: cytotoxicity in HEK293T NF-kB-Luc cells, SAR follow-up, cytotoxicity control for NF-kB activator project, cell-based, resazurin fluorescence (AID 493251); assay type: functional; details: Homo sapiens
Jurkat [18] = test: SAR Analysis of small molecule inhibitors of T-cell specific antigen receptor-induced NF-kB activation in a Jurkat cell line using a luminescence assay - Set 2. [Related pubchem assays (depositor defined):AID435003, AID435012, AID465]; assay type: functional, cell-based; details: Homo sapiens
HEK293 [19] = test: SAR Analysis of small molecule inhibitors of T-cell specific antigen receptor-induced NF-kB activation in a HEK-293T cell line using a luminescence assay - Set 2. [Related pubchem assays (depositor defined):AID435003, AID435012, AID489026]; assay type: functional, cell-based; details: Homo sapiens

Chain of Beta-galactosidase (Q8VNN2 whole entry): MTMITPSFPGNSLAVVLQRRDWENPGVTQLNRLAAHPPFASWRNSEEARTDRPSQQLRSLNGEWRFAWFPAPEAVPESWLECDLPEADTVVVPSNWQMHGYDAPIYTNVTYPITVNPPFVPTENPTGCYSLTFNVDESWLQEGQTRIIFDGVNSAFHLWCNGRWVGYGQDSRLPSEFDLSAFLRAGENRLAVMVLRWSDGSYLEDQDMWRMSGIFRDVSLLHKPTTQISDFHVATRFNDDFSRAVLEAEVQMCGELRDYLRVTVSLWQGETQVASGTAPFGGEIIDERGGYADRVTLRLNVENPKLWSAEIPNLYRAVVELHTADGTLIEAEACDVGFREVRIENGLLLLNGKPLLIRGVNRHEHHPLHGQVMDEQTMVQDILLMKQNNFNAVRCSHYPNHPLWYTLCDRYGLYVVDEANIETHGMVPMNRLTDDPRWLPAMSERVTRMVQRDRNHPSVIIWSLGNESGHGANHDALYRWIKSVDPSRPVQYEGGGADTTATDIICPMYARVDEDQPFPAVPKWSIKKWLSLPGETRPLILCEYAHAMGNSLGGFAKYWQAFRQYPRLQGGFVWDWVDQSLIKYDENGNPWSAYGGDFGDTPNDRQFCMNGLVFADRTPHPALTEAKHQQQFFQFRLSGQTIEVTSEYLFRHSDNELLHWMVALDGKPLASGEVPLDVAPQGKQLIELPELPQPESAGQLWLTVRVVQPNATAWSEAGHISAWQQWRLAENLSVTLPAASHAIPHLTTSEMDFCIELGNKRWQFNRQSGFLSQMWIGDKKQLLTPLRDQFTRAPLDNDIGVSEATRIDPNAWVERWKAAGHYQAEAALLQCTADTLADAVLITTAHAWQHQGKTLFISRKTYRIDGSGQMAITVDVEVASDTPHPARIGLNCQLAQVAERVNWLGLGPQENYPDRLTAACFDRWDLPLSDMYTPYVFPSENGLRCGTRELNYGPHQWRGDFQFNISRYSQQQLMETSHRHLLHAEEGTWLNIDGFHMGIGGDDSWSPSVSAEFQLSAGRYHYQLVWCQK
Chain of Type-1 angiotensin II receptor (P30556 whole entry): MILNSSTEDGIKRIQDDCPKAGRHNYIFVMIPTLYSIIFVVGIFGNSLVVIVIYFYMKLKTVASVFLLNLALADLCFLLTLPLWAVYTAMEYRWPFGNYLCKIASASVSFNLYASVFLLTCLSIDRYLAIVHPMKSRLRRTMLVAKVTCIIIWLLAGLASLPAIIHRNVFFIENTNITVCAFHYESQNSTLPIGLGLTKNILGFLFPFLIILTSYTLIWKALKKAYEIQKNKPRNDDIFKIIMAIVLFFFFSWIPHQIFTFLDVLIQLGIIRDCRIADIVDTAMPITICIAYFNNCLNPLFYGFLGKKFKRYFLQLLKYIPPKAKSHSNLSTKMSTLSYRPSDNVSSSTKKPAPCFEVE
Chain of Procathepsin L (P07711 whole entry, the tested form may be a part): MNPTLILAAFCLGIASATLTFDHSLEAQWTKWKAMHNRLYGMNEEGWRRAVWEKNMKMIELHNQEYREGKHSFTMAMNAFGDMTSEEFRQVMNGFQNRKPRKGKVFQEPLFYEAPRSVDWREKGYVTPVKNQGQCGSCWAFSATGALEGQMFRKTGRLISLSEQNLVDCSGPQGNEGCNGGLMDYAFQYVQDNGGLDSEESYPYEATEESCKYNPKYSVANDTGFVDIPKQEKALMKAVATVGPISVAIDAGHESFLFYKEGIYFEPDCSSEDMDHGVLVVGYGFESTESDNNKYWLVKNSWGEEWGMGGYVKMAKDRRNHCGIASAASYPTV

**Q.** For `Cc1nn(-c2ccccc2)c(Cl)c1C(=O)N1CCN(C)CC1`, which IC50 [1] is on record?
**A.** > 67.5 µM (inactive)

**Q.** And the IC50 (HEK293 [2])?
**A.** > 67.5 µM (inactive)

**Q.** For `ON1C(c2ccc(Cl)cc2Cl)N(O)[C@H]2CCCC[C@H]21` (some centres undefined), which EC50 (Beta-galactosidase) is on record?
**A.** > 40 µM (inactive)

**Q.** And the IC50 [3]?
**A.** > 47.1 µM (inactive)

**Q.** What about the IC50 [4] of the same compound?
**A.** 17.7 µM (active)

**Q.** What about the EC50 [5] of the same compound?
**A.** > 53 µM (inactive)

**Q.** With `CC(C)(O)c1[nH]c2ccc(C#N)cc2c1C(C)(C)O` as the compound, how does the IC50 (Jurkat [6]) read?
**A.** > 80 µM (inactive)

**Q.** And the IC50 [7]?
**A.** > 80 µM (inactive)

**Q.** Which results are given for `CCCOc1ccc(C(=O)N2CCN(c3ccc(N)cc3Cl)CC2)cc1`?
**A.** AC50 [8]: 10.1 µM (active); AC50 [9]: 47.8 µM (active)

**Q.** With `COc1ccc(N=C(S)N(C)N=C(S)Nc2ccc(OC)cc2)cc1` as the compound, how does the AC50 [8] read?
**A.** 16.3 µM (active)

**Q.** What about the AC50 [9] of the same compound?
**A.** 22 µM (active)

**Q.** For `CC(C(=O)OCC(=O)c1cccc([N+](=O)[O-])c1)N1C(=O)C2C3CCC(C3)C2C1=O` (centres undefined), which EC50 (Beta-galactosidase) is on record?
**A.** > 40 µM (inactive)

**Q.** And the IC50 [4]?
**A.** 24.4 µM (not active)

**Q.** Which results are given for `O=C(Nc1ccc(Cl)cc1)Nc1cccc(C(=O)O)c1`?
**A.** IC50 (Leucine aminopeptidase): < 1 µM (active); IC50 (Jurkat [6]): 3.35 µM (active); IC50 [7]: > 80 µM (inactive); AC50 [10]: 1.88 µM (active); IC50 (Procathepsin L): > 59.6 µM (not active); AC50 [11]: 2.51 µM (active); AC50 [12]: 2.95 µM (active); IC50 (Aspartyl aminopeptidase): > 73.5 µM (not active); AC50 [13]: > 52 µM (inactive); AC50 [14]: 3.79 µM (active); AC50 [15]: 2.93 µM (active); AC50 [16]: 2.22 µM (active)

**Q.** Which IC50 [1] does the source give for `Cc1ccc(NC(=O)c2ccccc2F)c(NC(=O)c2ccccc2F)c1` here?
**A.** > 67.5 µM (inactive)

**Q.** What about the IC50 (HEK293 [2]) of the same compound?
**A.** > 67.5 µM (inactive)

**Q.** Which IC50 (HEK293 [17]) does the source give for `COc1ccc(C(NC(=O)CC(C)C)c2ccc3cccnc3c2O)cc1OC` (centres undefined) here?
**A.** 20.1 µM (inactive)

**Q.** And the IC50 (Jurkat [18])?
**A.** 5.48 µM (active)

**Q.** And the IC50 (HEK293 [19])?
**A.** 6.6 µM (active)

**Q.** For `CCC(=O)NC(c1ccc(N(C)C)cc1)c1ccc2cccnc2c1O` (centres undefined), which IC50 (HEK293 [17]) is on record?
**A.** 18.4 µM (active)

**Q.** What about the IC50 (Jurkat [18]) of the same compound?
**A.** 2.67 µM (active)

**Q.** And the IC50 (HEK293 [19])?
**A.** 7 µM (active)

Reference: ChEMBL document CHEMBL1201862, “PubChem BioAssay data set” (2004)
